Laboratory results reported in ChEMBL document CHEMBL5291721, “A preclinical secondary pharmacology resource illuminates target-adverse drug reaction associations of marketed drugs” (Nat Commun, 2023).

Legend:
Estrogen receptor = target: T1, Estrogen receptor (Homo sapiens, UniProt P03372)
T1 sequence (P03372 whole entry): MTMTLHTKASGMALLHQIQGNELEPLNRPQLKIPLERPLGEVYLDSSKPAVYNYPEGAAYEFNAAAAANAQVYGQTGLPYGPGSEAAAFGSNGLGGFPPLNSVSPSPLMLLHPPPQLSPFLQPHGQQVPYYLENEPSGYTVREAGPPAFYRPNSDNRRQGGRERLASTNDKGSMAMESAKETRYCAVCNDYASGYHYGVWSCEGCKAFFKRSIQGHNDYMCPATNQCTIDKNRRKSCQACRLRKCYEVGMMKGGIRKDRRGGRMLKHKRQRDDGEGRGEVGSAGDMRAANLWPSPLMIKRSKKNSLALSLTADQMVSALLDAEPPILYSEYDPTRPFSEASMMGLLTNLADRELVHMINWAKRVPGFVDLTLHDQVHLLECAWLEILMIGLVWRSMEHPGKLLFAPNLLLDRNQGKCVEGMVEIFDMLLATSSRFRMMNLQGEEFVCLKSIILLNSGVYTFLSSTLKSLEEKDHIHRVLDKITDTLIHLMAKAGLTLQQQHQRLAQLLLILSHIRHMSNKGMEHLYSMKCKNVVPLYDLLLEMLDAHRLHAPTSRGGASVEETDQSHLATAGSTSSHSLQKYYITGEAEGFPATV

[1] = target: T2, 5-hydroxytryptamine receptor 1A (Homo sapiens, UniProt P08908)
T2 sequence (P08908 whole entry): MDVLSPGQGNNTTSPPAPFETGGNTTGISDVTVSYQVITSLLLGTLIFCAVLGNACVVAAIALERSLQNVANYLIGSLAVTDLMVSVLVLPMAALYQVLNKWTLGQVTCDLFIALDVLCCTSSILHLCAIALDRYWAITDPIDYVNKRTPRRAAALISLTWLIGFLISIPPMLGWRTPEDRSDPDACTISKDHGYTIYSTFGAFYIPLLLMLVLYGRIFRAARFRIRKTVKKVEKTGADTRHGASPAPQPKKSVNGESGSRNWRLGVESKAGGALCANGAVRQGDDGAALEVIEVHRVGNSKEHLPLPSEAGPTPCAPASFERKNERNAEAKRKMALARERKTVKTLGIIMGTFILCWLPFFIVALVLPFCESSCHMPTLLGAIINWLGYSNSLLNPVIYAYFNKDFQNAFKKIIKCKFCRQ

[2] = target: T3, Muscarinic acetylcholine receptor M2 (Homo sapiens, UniProt P08172)
T3 sequence (P08172 whole entry): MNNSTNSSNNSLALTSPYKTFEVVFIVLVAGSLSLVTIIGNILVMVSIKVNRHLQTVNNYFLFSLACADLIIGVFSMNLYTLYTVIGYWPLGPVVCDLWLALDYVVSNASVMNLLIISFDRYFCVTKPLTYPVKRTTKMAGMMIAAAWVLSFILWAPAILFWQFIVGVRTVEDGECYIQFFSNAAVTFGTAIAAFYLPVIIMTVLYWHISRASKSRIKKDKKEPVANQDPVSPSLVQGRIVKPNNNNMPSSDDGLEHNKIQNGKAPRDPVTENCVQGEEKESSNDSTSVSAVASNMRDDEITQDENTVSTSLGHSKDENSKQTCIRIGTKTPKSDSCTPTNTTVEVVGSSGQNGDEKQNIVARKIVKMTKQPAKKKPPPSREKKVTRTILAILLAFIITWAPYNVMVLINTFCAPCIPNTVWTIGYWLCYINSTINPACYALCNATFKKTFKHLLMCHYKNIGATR

[3] = target: T4, Amine oxidase [flavin-containing] A (Homo sapiens, UniProt P21397); format: functional
T4 sequence (P21397 whole entry): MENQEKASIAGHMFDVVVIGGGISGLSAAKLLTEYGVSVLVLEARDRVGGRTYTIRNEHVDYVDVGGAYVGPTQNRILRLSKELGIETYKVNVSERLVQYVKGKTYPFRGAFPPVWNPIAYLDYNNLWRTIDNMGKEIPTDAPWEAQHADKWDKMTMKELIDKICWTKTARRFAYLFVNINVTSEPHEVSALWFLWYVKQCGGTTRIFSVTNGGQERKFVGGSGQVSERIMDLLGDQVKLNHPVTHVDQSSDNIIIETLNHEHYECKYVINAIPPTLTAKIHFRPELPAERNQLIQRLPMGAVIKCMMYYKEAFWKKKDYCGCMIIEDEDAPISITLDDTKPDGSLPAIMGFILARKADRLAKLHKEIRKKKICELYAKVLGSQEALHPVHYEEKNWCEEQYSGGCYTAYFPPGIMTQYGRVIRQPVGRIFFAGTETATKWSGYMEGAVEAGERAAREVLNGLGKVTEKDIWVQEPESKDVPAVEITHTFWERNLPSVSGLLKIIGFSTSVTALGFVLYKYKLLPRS

Thromboxane A2 receptor [4] = target: T5, Thromboxane A2 receptor (Homo sapiens, UniProt P21731); format: functional, cell-based
T5 sequence (P21731 whole entry): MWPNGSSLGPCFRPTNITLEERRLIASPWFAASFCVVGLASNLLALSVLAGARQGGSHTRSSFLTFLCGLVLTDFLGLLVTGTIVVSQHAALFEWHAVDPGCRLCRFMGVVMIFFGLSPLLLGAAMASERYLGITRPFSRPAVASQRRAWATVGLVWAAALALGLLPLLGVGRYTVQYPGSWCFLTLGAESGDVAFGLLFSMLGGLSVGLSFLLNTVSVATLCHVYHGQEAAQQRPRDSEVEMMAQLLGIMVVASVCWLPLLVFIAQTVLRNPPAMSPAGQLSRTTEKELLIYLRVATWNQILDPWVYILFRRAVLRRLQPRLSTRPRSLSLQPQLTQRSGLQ

Thromboxane A2 receptor [5] = target: T5, Thromboxane A2 receptor; format: functional, cell-based; remark: listed apart in the source
Adenosine receptor A3 = target: T6, Adenosine receptor A3 (Homo sapiens, UniProt P0DMS8)
T6 sequence (P0DMS8 whole entry): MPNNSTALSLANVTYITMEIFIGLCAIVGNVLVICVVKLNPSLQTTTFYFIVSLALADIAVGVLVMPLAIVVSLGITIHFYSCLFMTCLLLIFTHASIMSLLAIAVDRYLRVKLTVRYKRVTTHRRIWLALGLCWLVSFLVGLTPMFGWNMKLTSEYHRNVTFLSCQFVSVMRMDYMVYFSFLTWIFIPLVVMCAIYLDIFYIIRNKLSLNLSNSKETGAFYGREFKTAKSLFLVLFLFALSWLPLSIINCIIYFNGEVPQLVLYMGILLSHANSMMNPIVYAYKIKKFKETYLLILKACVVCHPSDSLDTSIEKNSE

[6] = target: Sodium-dependent noradrenaline transporter (Homo sapiens, UniProt P23975)
Sequence of Sodium-dependent noradrenaline transporter (P23975 whole entry): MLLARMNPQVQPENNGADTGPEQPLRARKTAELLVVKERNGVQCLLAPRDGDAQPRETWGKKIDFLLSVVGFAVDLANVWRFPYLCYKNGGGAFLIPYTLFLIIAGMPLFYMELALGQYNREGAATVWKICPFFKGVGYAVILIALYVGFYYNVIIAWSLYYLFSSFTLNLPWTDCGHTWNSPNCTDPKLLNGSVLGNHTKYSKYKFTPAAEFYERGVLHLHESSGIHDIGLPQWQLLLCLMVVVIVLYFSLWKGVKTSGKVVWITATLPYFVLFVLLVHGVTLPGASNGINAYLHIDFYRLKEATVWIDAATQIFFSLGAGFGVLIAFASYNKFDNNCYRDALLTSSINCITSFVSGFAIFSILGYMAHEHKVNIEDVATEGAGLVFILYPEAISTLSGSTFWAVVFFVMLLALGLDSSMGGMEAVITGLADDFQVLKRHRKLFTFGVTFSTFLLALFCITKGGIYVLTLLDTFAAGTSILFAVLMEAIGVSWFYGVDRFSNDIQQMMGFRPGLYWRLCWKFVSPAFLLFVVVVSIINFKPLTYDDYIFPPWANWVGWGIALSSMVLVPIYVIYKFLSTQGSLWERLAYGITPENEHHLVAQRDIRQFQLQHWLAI

[7] = target: Sodium-dependent dopamine transporter (Homo sapiens, UniProt Q01959)
Sequence of Sodium-dependent dopamine transporter (Q01959 whole entry): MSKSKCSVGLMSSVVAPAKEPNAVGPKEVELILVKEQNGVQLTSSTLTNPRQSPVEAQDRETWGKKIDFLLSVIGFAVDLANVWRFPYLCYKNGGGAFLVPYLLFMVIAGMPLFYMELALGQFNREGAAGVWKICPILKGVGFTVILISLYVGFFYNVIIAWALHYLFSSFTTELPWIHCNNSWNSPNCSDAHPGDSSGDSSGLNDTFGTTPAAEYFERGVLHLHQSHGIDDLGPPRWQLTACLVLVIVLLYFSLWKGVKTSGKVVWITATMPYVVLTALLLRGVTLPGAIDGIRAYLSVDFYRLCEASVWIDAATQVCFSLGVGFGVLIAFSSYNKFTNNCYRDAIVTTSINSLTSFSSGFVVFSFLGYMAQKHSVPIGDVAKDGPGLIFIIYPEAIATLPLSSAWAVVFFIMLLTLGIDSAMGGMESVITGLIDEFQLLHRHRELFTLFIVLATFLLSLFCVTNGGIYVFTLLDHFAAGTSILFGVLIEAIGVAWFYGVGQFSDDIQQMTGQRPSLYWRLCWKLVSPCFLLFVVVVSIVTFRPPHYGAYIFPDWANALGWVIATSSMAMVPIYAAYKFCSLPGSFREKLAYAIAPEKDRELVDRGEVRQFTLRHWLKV

[8] = target: Vascular endothelial growth factor receptor 2 (Homo sapiens, UniProt P35968); format: functional
Sequence of Vascular endothelial growth factor receptor 2 (P35968 whole entry): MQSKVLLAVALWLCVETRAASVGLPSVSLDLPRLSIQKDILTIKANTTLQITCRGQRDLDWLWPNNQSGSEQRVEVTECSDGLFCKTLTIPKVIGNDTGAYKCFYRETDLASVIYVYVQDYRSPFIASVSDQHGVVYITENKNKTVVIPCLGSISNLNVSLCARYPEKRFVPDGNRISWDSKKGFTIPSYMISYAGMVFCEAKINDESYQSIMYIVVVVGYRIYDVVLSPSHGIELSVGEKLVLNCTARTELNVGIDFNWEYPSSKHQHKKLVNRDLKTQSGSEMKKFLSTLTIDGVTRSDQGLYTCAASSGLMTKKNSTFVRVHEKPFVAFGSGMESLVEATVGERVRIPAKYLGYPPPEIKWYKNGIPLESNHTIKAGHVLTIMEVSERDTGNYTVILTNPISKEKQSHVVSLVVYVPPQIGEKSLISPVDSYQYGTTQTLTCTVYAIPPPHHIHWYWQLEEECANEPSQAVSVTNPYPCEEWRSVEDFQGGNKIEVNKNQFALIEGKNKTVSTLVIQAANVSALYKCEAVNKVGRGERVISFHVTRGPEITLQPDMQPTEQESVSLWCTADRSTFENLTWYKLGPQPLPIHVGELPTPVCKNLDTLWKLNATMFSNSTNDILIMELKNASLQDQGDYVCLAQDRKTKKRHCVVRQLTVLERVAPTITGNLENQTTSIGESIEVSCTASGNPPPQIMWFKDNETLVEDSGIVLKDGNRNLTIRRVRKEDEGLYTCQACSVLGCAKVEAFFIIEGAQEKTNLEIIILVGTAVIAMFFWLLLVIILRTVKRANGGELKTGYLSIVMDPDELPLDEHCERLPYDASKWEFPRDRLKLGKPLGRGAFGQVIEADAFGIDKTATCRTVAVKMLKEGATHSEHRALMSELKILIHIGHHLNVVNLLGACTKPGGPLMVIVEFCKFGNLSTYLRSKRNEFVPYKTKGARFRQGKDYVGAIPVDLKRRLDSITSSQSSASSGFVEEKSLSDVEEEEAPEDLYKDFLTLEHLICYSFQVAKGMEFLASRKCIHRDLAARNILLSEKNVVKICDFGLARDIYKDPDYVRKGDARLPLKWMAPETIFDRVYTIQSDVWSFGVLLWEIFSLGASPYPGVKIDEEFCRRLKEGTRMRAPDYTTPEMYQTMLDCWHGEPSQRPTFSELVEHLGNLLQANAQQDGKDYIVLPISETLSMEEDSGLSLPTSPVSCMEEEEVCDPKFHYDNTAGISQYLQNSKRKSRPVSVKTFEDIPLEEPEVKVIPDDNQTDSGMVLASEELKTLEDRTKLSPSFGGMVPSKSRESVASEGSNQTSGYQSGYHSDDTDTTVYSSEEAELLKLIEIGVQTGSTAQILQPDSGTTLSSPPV
Note: assay procedure not described here.

Compound | AC50 (Estrogen receptor) [µM] | AC50 [1] [µM] | AC50 [2] [µM] | AC50 [3] [µM] | AC50 (Thromboxane A2 receptor [4]) [µM] | AC50 (Thromboxane A2 receptor [5]) [µM] | AC50 (Adenosine receptor A3) [µM] | AC50 [6] [µM] | AC50 [7] [µM] | AC50 [8] [µM]
OB1OCc2cc(F)ccc21 [TAVABOROLE] | > 30 | > 30 | > 30 | > 30 | > 30 | > 30 | > 30 | > 30 | > 30 | > 30
CCN(CC)CCOC(=O)C(c1ccccc1)C1CCCCC1 (stereo not given) [DROFENINE] | > 30 | 2.71 | 0.0342 | > 30 | > 30 | > 30 | > 30 | 13 | 0.219 | > 30
Clc1cc(Cl)c(OCC#CI)cc1Cl [HALOPROGIN] | > 30 | > 30 | > 30 | > 30 | > 30 | > 30 | 0.946 | 5.12 | 6.43 | > 30
NNc1nnc(NN)c2ccccc12 [DIHYDRALAZINE] | > 30 | > 30 | > 30 | 26.4 | > 30 | > 30 | 0.197 | > 30 | > 30 | > 30
C[N+]1(CCCCC[N+]2(C)CCCC2)CCCC1 [PENTOLINIUM] | > 30 | > 30 | > 30 | > 30 | > 30 | > 30 | > 30 | > 30 | > 30 | > 30
CC[C@@H](C(N)=O)N1CCCC1=O | > 30 | > 30 | > 30 | > 30 | > 30 | > 30 | > 30 | > 30 | > 30 | > 30
CC(=O)Oc1c(C)c(C)c2c(c1C)CC[C@@](C)(CCC[C@H](C)CCC[C@H](C)CCCC(C)C)O2 | > 30 | > 30 | > 30 | > 30 | > 30 | > 30 | > 30 | > 30 | > 30 | > 30
CCOc1ccccc1C(N)=O [ETHENZAMIDE] | > 30 | > 30 | > 30 | > 30 | > 30 | > 30 | > 30 | > 30 | > 30 | > 30
CCOc1ccc(Cc2cc([C@@H]3O[C@H](CO)[C@@H](O)[C@H](O)[C@H]3O)ccc2Cl)cc1 [DAPAGLIFLOZIN] | > 30 | > 30 | > 30 | > 30 | > 30 | > 30 | > 30 | > 30 | > 30 | > 30
N=c1ccn2c(n1)O[C@H]1[C@H](O)[C@@H](CO)O[C@H]12 [ANCITABINE] | > 30 | > 30 | > 30 | > 30 | > 30 | > 30 | > 30 | > 30 | > 30 | > 30
N=C1CCCN1Cc1[nH]c(=O)[nH]c(=O)c1Cl | > 30 | > 30 | > 30 | > 30 | > 30 | > 30 | > 30 | > 30 | > 30 | > 30
CC(C)(C)N1CCC(c2ccccc2)(c2ccccc2)CC1 [BUDIPINE] | > 30 | > 30 | 0.301 | > 30 | > 30 | > 30 | > 30 | > 30 | > 30 | > 30
CC(C)COC(=O)OCN1C(=O)CN(CCN2CC(=O)N(COC(=O)OCC(C)C)C(=O)C2)CC1=O [SOBUZOXANE] | > 30 | > 30 | > 30 | > 30 | > 30 | > 30 | > 30 | > 30 | > 30 | > 30
CC1=C(/C=C/C(C)=C/C=C/C(C)=C/C=C/C=C(C)/C=C/C=C(C)/C=C/C2=C(C)CCCC2(C)C)C(C)(C)CCC1 [BETA CAROTENE] | > 30 | > 30 | > 30 | > 30 | > 30 | > 30 | > 30 | > 30 | > 30 | > 30
CC(C)(C)C(=O)OCOC(=O)[C@@H]1N2C(=O)[C@@H](NC(=O)[C@H](N)c3ccccc3)[C@H]2SC1(C)C [PIVAMPICILLIN] | > 30 | > 30 | > 30 | > 30 | > 30 | > 30 | > 30 | > 30 | > 30 | > 30
CCOc1ccccc1OCC1CNCCO1 (stereo not given) [VILOXAZINE] | > 30 | 9.72 | > 30 | > 30 | > 30 | > 30 | > 30 | 0.362 | > 30 | > 30
CCC(C)(C)c1ccc(CC(C)CN2C[C@@H](C)O[C@@H](C)C2)cc1 (stereo not given in full) [AMOROLFINE] | > 30 | > 30 | > 30 | > 30 | > 30 | > 30 | 12.1 | > 30 | > 30 | > 30
